Experimental data from patent publication US20140228303A1, “NOVEL SGLT INHIBITORS” (Panacea Biotec Ltd, priority 2011, published 2014).

How the values were obtained:
C57BL/6J mice = assay: Estimation of urinary glucose in C57BL/6J mice; format: in vivo, mouse; conditions: urine collected over 24 h
Procedure: Estimation of Urinary Glucose in C57BL/6J Mice
C57BL/6J mice were fasted 4 h before drug treatment. Fasted mice were weighed and randomized into different groups based on their body weight (n=6). At time T0 test compounds and standard compounds suspended in 0.25% CMC or PEG 400 formulation, were administered to respective groups and kept in metabolic cages (6 mice/cage) after dosing. Animals were fed after drug administration and urine was collected over a period of 24 h. Urinary volume was measured and urinary glucose was estimated using Merckotest Glucose Reagent (Merck Specialities Pvt. Ltd., India).

mouse SGLT-2 = biological target: T1, mouse SGLT-2 (Mus musculus, UniProt Q923I7); assay: Methyl-α-D-[U-14C]Glucopyranoside uptake assay for SGLT-2 in CHO-K1 cells expressing mSGLT-2; format: cell-based; conditions: N.E. = Not Effective
T1 construct: Full-length mouse SGLT-2 cDNA was amplified from C57BL/6J mouse kidneys and introduced in the pcDNA3.1(+) expression vector; expressed in transfected cells
T1 sequence (Q923I7 1-670): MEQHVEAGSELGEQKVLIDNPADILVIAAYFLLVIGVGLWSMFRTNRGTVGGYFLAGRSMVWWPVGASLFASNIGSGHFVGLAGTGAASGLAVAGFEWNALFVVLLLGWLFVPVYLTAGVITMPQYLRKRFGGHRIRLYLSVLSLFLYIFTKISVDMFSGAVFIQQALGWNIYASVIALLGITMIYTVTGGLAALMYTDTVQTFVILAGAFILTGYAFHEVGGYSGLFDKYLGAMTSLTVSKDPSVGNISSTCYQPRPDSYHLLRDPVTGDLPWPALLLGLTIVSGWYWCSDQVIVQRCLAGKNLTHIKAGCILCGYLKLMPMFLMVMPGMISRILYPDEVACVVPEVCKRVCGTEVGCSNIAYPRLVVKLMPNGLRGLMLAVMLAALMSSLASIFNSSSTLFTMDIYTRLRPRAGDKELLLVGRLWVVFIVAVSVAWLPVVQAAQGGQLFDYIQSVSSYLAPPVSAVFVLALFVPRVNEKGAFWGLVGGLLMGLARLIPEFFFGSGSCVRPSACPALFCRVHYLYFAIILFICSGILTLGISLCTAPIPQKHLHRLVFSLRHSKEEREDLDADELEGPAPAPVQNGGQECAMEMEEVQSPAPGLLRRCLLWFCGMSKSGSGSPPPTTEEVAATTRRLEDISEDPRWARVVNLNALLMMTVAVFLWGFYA
Procedure: Preparation of Mouse SGLT-2 Expressing Cells
Full-length mouse SGLT-2 cDNA was amplified from C57BL/6J mouse kidneys and introduced in the pcDNA3.1(+) expression vector (Invitrogen, Inc.) and propagated in Escherichia coli strain DH5α using Luria-Bertani (LB) medium containing ampicillin. […] Stably transfected cells were selected using G418 antibiotic selection pressure.
Methyl-α-D-[U-^14C]Glucopyranoside Uptake Assay for SGLT-2
(§1) Cells expressing mSGLT-2 were seeded on 96-well tissue culture plates (Greiner, Inc.) in RPMI containing 10% FBS and 400 μg/mL G418 (0.8×10^5 cells per well in 200 μL medium) and incubated at 37° C. under 5% carbon dioxide for 24 h prior to the assay. Cells were washed twice with 200 μL of either sodium buffer (140 mM NaCl, 4.7 mM KCl, 2.2 mM CaCl2, 1.2 mM MgCl2, 10 mM Tris/Hepes, pH 7.4) or sodium-free buffer (137 mM N-methyl-glucamine, 4.7 mM KCl, 2.2 mM CaCl2, 1.2 mM MgCl2, 10 mM Tris/Hepes, pH 7.4). Reaction mixture containing test compounds at different concentrations diluted in assay buffer, 0.1 mM unlabeled Methyl-α-D-glucopyranoside and 1 μCi/well methyl-α-D[U-^14C]glucopyranoside (American Radiochemicals) was added per well of a 96-well plate and incubated at 37° C. for 1 h. Cells were washed thrice with 200 μL of wash buffer (140 mM NaCl, 4.7 mM KCl, 2.2 mM CaCl2, 1.2 mM MgCl2, 10 mM Tris/Hepes, pH 7.4 containing 500 μM phlorizin) and lysed using 50 μL of 0.25N NaOH. Methyl-α-D[U-^14C]glucopyranoside uptake was quantitated using a Top count scintillation counter (PerkinElmer, Inc.). All the test compounds were assayed in triplicates.

Rats = assay: Estimation of urinary glucose in rat; format: in vivo; conditions: urine collected over 24 hrs
Procedure: Estimation of Urinary Glucose in Rat
Rats were fasted overnight (14 hrs) before drug treatment. Fasted rats were weighed and randomized into different groups based on their body weight (n=4). At time To test compounds and standard compound suspended in 0.25% C.M.C. or PEG 400 formulation were administered to respective groups and kept the animals in metabolic cages (1 rat/cage) after dosing. Animals were fed after drug administration and urine was collected over a period of 24 hrs. Urine volume was measured and urinary glucose was estimated using Merckotest Glucose Reagent (Merck Specialities Pvt. Ltd., India).

human SGLT-1 = biological target: T2, human SGLT-1 (Homo sapiens, UniProt P13866); assay: Methyl-α-D-[U-14C]Glucopyranoside uptake assay for SGLT-1 in CHO-K1 cells expressing hSGLT-1; format: cell-based; conditions: N.E. = Not Effective
T2 construct: Full-length human SGLT-1 cDNA in the pCMV-XL-Neo expression vector was obtained from Origene Corporation
T2 sequence (P13866 1-664): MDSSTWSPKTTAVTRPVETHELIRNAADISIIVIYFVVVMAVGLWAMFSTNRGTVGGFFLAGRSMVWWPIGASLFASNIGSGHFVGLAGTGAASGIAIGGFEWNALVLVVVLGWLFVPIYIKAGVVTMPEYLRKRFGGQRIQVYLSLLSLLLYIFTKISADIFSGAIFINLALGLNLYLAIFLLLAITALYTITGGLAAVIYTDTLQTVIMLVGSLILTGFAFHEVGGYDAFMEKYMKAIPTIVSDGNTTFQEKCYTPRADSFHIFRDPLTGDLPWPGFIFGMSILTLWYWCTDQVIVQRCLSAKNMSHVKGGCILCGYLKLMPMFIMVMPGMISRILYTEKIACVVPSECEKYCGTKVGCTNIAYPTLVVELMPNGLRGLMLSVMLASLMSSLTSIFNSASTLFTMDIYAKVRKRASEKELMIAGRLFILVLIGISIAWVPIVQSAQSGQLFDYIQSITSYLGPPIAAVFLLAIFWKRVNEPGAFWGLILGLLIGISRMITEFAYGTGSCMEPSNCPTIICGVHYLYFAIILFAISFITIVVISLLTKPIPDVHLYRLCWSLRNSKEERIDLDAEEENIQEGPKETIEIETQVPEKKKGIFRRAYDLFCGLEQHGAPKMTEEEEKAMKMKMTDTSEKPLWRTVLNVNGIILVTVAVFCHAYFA
Procedure: Preparation of Human SGLT-1 Expressing Cells
Full-length human SGLT-1 cDNA in the pCMV-XL-Neo expression vector was obtained from Origene Corporation and propagated in Escherichia coli strain DH5α using Luria-Bertani (LB) medium containing ampicillin. […] Stably transfected cells were selected using G418 antibiotic selection pressure.
Methyl-α-D-[U-^14C]Glucopyranoside Uptake Assay for SGLT-1
as §1, with “hSGLT-1” for “mSGLT-2”, “800 μg/ml” for “400 μg/mL”, “compounds” for “compounds at different concentrations”, “1” for “0.1”, “methyl-α-D-[U-^14C]glucopyranoside” for “methyl-α-D[U-^14C]glucopyranoside”, “Methyl-α-D-[U-^14C]glucopyranoside” for “Methyl-α-D[U-^14C]glucopyranoside”

% inhibition of Methyl-α-D-[U-14C] Glucopyranoside uptake (CHO-K1 cells) mediated by SGLT-2 (mouse SGLT-2; 0.1 nM compound): 16.73%
% inhibition of Methyl-α-D-[U-14C] Glucopyranoside uptake (CHO-K1 cells) mediated by SGLT-2 (mouse SGLT-2; 1 nM compound): 26.19%
% inhibition of Methyl-α-D-[U-14C] Glucopyranoside uptake (CHO-K1 cells) mediated by SGLT-2 (mouse SGLT-2; 10 nM compound): 73.13%
% inhibition of Methyl-α-D-[U-14C] Glucopyranoside uptake (CHO-K1 cells) mediated by SGLT-2 (mouse SGLT-2; 100 nM compound): 92.85%
% inhibition of Methyl-α-D-[U-14C] Glucopyranoside uptake (CHO-K1 cells) mediated by SGLT-1 (human SGLT-1; 100 nM compound): N.E.
% inhibition of Methyl-α-D-[U-14C] Glucopyranoside uptake (CHO-K1 cells) mediated by SGLT-1 (human SGLT-1; 1 μM compound): 33.10%
% inhibition of Methyl-α-D-[U-14C] Glucopyranoside uptake (CHO-K1 cells) mediated by SGLT-1 (human SGLT-1; 10 μM compound): 78.87%
Substance: 1-(4-(2-chloro-5-((2S,3R,4R,5S,6R)-3,4,5-trihydroxy-6-(hydroxymethyl)tetrahydro-2H-pyran-2-yl)benzyl)phenyl)ethanone O-methyl oxime [Compound 2]
UGE in mice (in mg/g of feed consumed) at 3 mpk (C57BL/6J mice): 88.9 mg/g of feed consumed
UGE in rat (in mg/g of feed consumed) at 3 mpk (Rats): 68.6 mg/g of feed consumed
